This note sets out measurements from EPA's ToxRefDB 2.

Each structure is given as a SMILES string.

Series [1] concerns rat. To be noted: Subchronic oral toxicity in rodents, fischer, Gavage/Intubation, dose end: 13 week, group: systemic.
For series [2], the system named is rat. To be noted: Multigenerational reproductive toxicity study, sprague dawley, Oral, Gavage/Intubation, dose end: 2 generation, group: parental.
Series [3] has as its system rat. The settings on record: Carcinogenicity, fischer, Oral, Gavage/Intubation, dose end: 2 year, group: systemic.
Series [4] relates to mouse. To be noted: Carcinogenicity, b6c3f1, Oral, Gavage/Intubation, dose end: 2 year, group: systemic.
Series [5] deals with mouse. To be noted: Subchronic oral toxicity in rodents, b6c3f1, Gavage/Intubation, dose end: 13 week, group: systemic, systemic / in life observation / clinical signs / lethargy + systemic / organ weight / liver / absolute + systemic / organ weight / liver / ….
Series [6] has as its system rat. To be noted: Prenatal developmental toxicity study, sprague dawley, Oral, Gavage/Intubation, dose end: 15 GD.
The test system of series [7] is rabbit. The settings on record: Prenatal developmental toxicity study, new zealand white, Oral, Gavage/Intubation, dose end: 18 GD.
The subject of series [8] is rat. The settings on record: Fertility (Segment I); sprague dawley; Oral; Gavage/Intubation; dose end: 4 week; group: parental; systemic / organ weight / epididymis / relative to body weight + systemic / pathology microscopic / epididymis / [other] + systemic / ….
Series [9] concerns mouse. The settings on record: Carcinogenicity, b6c3f1, Oral, Feed, dose end: 24 month, group: systemic.
Series [10] relates to rabbit. The settings on record: Prenatal developmental toxicity study; chinchilla; Oral; Gavage/Intubation; dose end: 18 GD; group: maternal; reproductive / reproductive performance / postimplantation loss / postimplantation loss + systemic / in life observation / body weight / ….
For series [11], the system named is dog. The settings on record: Chronic toxicity; beagle; Oral; Feed; dose end: 26 week; group: systemic; systemic / in life observation / body weight / body weight + systemic / clinical chemistry / [other] / [other] + systemic / clinical ….
Series [12] relates to rat. To be noted: Combined chronic toxicity/carcinogenicity, other, Oral, Feed, dose end: 106 week.
Series [13] relates to dog. The settings on record: Chronic toxicity, beagle, Oral, Feed, dose end: 12 month.
For series [14], the system named is rat. To be noted: Carcinogenicity; fischer; Oral; Feed; dose end: 103 week; group: systemic; systemic / in life observation / clinical signs / drooping eyelids (ptosis) + systemic / pathology microscopic / adrenal gland / ….
Series [15] relates to mouse. To be noted: Carcinogenicity, b6c3f1, Oral, Feed, dose end: 103 week, group: systemic.
For series [16], the system named is mouse. The settings on record: Subchronic oral toxicity in rodents, b6c3f1, Feed, dose end: 13 week, group: systemic, systemic / in life observation / body weight / body weight.
Setting [17] is: systemic / organ weight / liver / absolute + systemic / organ weight / liver / relative to body weight.
[18] abbreviates: systemic / in life observation / clinical signs / tremors + systemic / in life observation / body weight / body weight gain.
Where [19] appears, read: systemic / in life observation / body weight / body weight + systemic / organ weight / kidney / relative to body weight + systemic / ….
[20] abbreviates: systemic / in life observation / body weight / body weight + systemic / pathology microscopic / blood / leukemia mononuclear.
Where [21] appears, read: systemic / in life observation / body weight / body weight + systemic / pathology microscopic / thyroid gland / hyperplasia + systemic / ….
The mark [22] stands for this setting: systemic / pathology microscopic / thyroid gland / hyperplasia + systemic / pathology microscopic / liver / cytomegaly + systemic / ….
Where [23] appears, read: group: developmental, systemic / in life observation / body weight / fetal weight.
The mark [24] stands for this setting: group: maternal, systemic / in life observation / clinical signs / urine, discoloration.
Setting [25] is: group: maternal, systemic / in life observation / clinical signs / urine, discoloration + systemic / in life observation / body weight / body weight + ….
The mark [26] stands for this setting: group: developmental, developmental / developmental malformation / bone / bent + developmental / developmental malformation / eye / microphthalmia.
Setting [27] is: group: maternal, systemic / in life observation / body weight / body weight + systemic / in life observation / body weight / body weight gain + systemic / in….
The mark [28] stands for this setting: systemic / clinical chemistry / alanine aminotransferase (alt/sgpt) / alanine aminotransferase (alt/sgpt) + systemic / organ weight / liver….
Where [29] appears, read: systemic / clinical chemistry / protein / protein.
Setting [30] is: group: cholinesterase, cholinesterase / cholinesterase / cholinesterase / plasma cholinesterase (che) + cholinesterase / cholinesterase / cholinesterase / ….
Setting [31] is: group: systemic, systemic / in life observation / body weight / body weight + systemic / in life observation / food consumption / food consumption.
The mark [32] stands for this setting: group: systemic, systemic / in life observation / body weight / body weight + systemic / in life observation / food consumption / food consumption + systemic….
[33] abbreviates: group: cholinesterase, cholinesterase / cholinesterase / cholinesterase / erythrocyte cholinesterase (che) + cholinesterase / cholinesterase / cholinesterase / ….
The mark [34] stands for this setting: group: systemic, systemic / clinical chemistry / cholesterol / cholesterol.
Setting [35] is: group: systemic, systemic / clinical chemistry / cholesterol / cholesterol + systemic / in life observation / clinical signs / vomitting.
Setting [36] is: systemic / in life observation / body weight / body weight.
[37] abbreviates: systemic / in life observation / body weight / body weight + systemic / pathology microscopic / mammary gland / mixed tumor malignant + ….

For orientation: LOAEL means the lowest tested level that showed an adverse finding. In general, NOAEL refers to the highest tested level that showed no adverse finding. `Oc1ccc(O)cc1` [Hydroquinone]: the LOAEL in series [1] (systemic / in life observation / clinical signs / lethargy + systemic / pathology microscopic / kidney / degeneration + systemic / pathology…) was 200 mg/kg/day; in series [2] (setting [18]) it was more than 150 mg/kg/day; in series [3] (setting [19]), 50 mg/kg/day; in series [4] (setting [21]), 100 mg/kg/day; in [5], more than 400 mg/kg/day; in series [6] (setting [23]), more than 300 mg/kg/day. Further, the LOAEL in series [6] (setting [25]) is more than 300 mg/kg/day; in series [7] (setting [26]), more than 150 mg/kg/day; in [7] (setting [27]) it was more than 150 mg/kg/day. Further, the LEL in series [1] (setting [17]) stood at 25 mg/kg/day; in series [2] (setting [18]), 150 mg/kg/day; in series [3] (setting [20]), 25 mg/kg/day; in series [4] (setting [22]), 50 mg/kg/day; in series [5], 25 mg/kg/day; in series [6] (setting [23]), 300 mg/kg/day. The LEL in [6] (setting [24]) is 30 mg/kg/day; in series [7] (setting [26]) it was 150 mg/kg/day; in series [7] (group: maternal, systemic / in life observation / food consumption / food consumption), 75 mg/kg/day. Further, the NEL in series [1] (setting [17]) is less than 25 mg/kg/day; in series [2] (systemic / in life observation / clinical signs / tremors), 50 mg/kg/day; in series [3] (setting [20]) it was less than 25 mg/kg/day; in [4] (setting [22]), less than 50 mg/kg/day; in [5] it was less than 25 mg/kg/day; in [6] (setting [23]), 100 mg/kg/day. Besides, the values for the NEL in [6] (setting [24]), in series [7] (setting [26]) and in series [7] (setting [27]) were less than 30 mg/kg/day, 75 mg/kg/day and 25 mg/kg/day, respectively. The NOAEL was 100 mg/kg/day in [1] (systemic / organ weight / liver / absolute + systemic / organ weight / liver / relative to body weight + systemic / in life observation / …); not below 150 mg/kg/day in series [2] (setting [18]); 25 mg/kg/day in series [3] (setting [19]); 50 mg/kg/day in series [4] (setting [21]); not below 400 mg/kg/day in series [5]; not below 300 mg/kg/day in [6] (setting [23]). The no-observed-adverse-effect level (NOAEL) is not below 300 mg/kg/day in series [6] (setting [25]), not below 150 mg/kg/day in series [7] (setting [26]) and not below 150 mg/kg/day in series [7] (setting [27]).
Regarding `COS(C)(=O)=O` [Methyl methanesulfonate], in series [8], the LEL was 20 mg/kg/day, the LOAEL was more than 20 mg/kg/day, the NEL was less than 20 mg/kg/day and the NOAEL is not below 20 mg/kg/day.
As for `CNC(=O)Oc1ccccc1OC(C)C` [Propoxur], the LOAEL in [9] (setting [28]) was 472 mg/kg/day; in series [10], 30 mg/kg/day; in series [11], more than 1.75 mg/kg/day; in [12] (setting [30]), more than 250 mg/kg/day; in series [12] (setting [32]) it was 250 mg/kg/day; in [13] (setting [33]), more than 781 mg/kg/day. The same compound showed an LOAEL in series [13] (setting [34]) of 62.4 mg/kg/day. Besides, the no-observed-adverse-effect level (NOAEL) in series [9] (setting [28]) is 114 mg/kg/day; in series [10], 10 mg/kg/day; in series [11] it was not below 1.75 mg/kg/day; in [12] (setting [30]), not below 250 mg/kg/day; in series [12] (setting [32]), 50 mg/kg/day; in series [13] (setting [33]), not below 781 mg/kg/day. Besides, the NOAEL in series [13] (setting [34]) is less than 62.4 mg/kg/day. Also, the LEL is 150 mg/kg/day in series [9] (setting [29]); 30 mg/kg/day in series [10]; 1.75 mg/kg/day in series [11]; 250 mg/kg/day in series [12] (setting [30]); 10 mg/kg/day in series [12] (setting [31]); 781 mg/kg/day in series [13] (setting [33]). Moreover, the LEL in series [13] (setting [35]) came to 62.4 mg/kg/day. The NEL in series [9] (setting [29]) is less than 150 mg/kg/day; in series [10], 10 mg/kg/day; in series [11], less than 1.75 mg/kg/day; in series [12] (group: cholinesterase, cholinesterase / cholinesterase / cholinesterase / plasma cholinesterase (che)), 50 mg/kg/day; in series [12] (setting [31]) it was less than 10 mg/kg/day; in series [13] (setting [33]) it was 186 mg/kg/day. Besides, in series [13] (setting [35]), the NEL was less than 62.4 mg/kg/day.
For `COC(=O)[C@H]1[C@H]2C[C@@H]3c4[nH]c5cc(OC)ccc5c4CCN3C[C@H]2C[C@@H](OC(=O)c2cc(OC)c(OC)c(OC)c2)[C@@H]1OC` [Reserpine], the LEL in series [14] is 0.25 mg/kg/day; in series [15] (setting [37]), 0.75 mg/kg/day; in series [16], 0.06 mg/kg/day. In addition, the values for the LOAEL in series [14], in [15] (setting [36]) and in series [16] were more than 0.5 mg/kg/day, 0.75 mg/kg/day and 0.225 mg/kg/day, respectively. Besides, the NEL was less than 0.25 mg/kg/day in series [14], less than 0.75 mg/kg/day in series [15] (setting [37]) and less than 0.06 mg/kg/day in series [16]. Also, the NOAEL was not below 0.5 mg/kg/day in series [14], less than 0.75 mg/kg/day in [15] (setting [36]) and 0.12 mg/kg/day in [16].
